Measured values reported in the supplement of paper PMC10307832.

Columns and labels:
Test in all cases: relative viability (nuclei count vs DMSO), 5 days (fraction); higher = more cells survive
[1] = compound: CN(c1ncccc1CNc1nc(Nc2ccc3c(c2)CC(=O)N3)ncc1C(F)(F)F)S(C)(=O)=O + CS(=O)(=O)N1CCN(Cc2cc3nc(-c4cccc5[nH]ncc45)nc(N4CCOCC4)c3s2)CC1 [Pictilisib] (partner 1 µM)
Procedure, shortened: (§1)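 Lung cancer cell lines were seeded in 1536-well plates and dosed by pin tool the next day, with either a single drug or a fixed anchor-drug dose combined with five library-drug doses (not always all listed) spaced in √10 steps. Five days later, one step fixed the cells and stained their nuclei (final 0.05% Triton X-100, 1% formaldehyde, 1 ug/ml Hoechst), and nuclei were counted on 4× images. Relative viability is the nuclei count in treated wells divided by the count in vehicle wells, and each value is the median of duplicate plates.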

[2] = compound: CN(c1ncccc1CNc1nc(Nc2ccc3c(c2)CC(=O)N3)ncc1C(F)(F)F)S(C)(=O)=O + CC(=O)c1c(C)c2cnc(Nc3ccc(N4CCNCC4)cn3)nc2n(C2CCCC2)c1=O [Palbociclib] (partner 0.5 µM)
Procedure, shortened: as §1

[3] = compound: CN(c1ncccc1CNc1nc(Nc2ccc3c(c2)CC(=O)N3)ncc1C(F)(F)F)S(C)(=O)=O + COc1cccc2cc(-c3nc([C@H]4CC[C@H](C(=O)O)CC4)n4ncnc(N)c34)[nH]c12 [OSI-027] (partner 0.5 µM)
Procedure, shortened: as §1

[4] = compound: CN(c1ncccc1CNc1nc(Nc2ccc3c(c2)CC(=O)N3)ncc1C(F)(F)F)S(C)(=O)=O + CCNC(=O)c1noc(-c2cc(C(C)C)c(O)cc2O)c1-c1ccc(CN2CCOCC2)cc1 [Luminespib] (partner 0.01 µM)
Procedure, shortened: as §1

Row | Cell Line | relative viability ([1]; first compound 0.01 µM) | relative viability ([1]; first compound 0.03162 µM) | relative viability ([1]; first compound 0.1 µM) | relative viability ([1]; first compound 0.3162 µM) | relative viability ([1]; first compound 1 µM) | relative viability ([2]; first compound 0.01 µM) | relative viability ([2]; first compound 0.03162 µM) | relative viability ([2]; first compound 0.1 µM) | relative viability ([2]; first compound 0.3162 µM) | relative viability ([2]; first compound 1 µM) | relative viability ([3]; first compound 0.01 µM) | relative viability ([3]; first compound 0.03162 µM) | relative viability ([3]; first compound 0.1 µM) | relative viability ([3]; first compound 0.3162 µM) | relative viability ([3]; first compound 1 µM) | relative viability ([4]; first compound 0.01 µM) | relative viability ([4]; first compound 0.03162 µM) | relative viability ([4]; first compound 0.1 µM) | relative viability ([4]; first compound 0.3162 µM) | relative viability ([4]; first compound 1 µM)
1 | NCI-H1395 | 0.569 | 0.655 | 0.605 | 0.668 | 0.661 | 0.649 | 0.602 | 0.698 | 0.655 | 0.596 | 0.657 | 0.606 | 0.671 | 0.738 | 0.721 | 0.766 | 0.703 | 0.682 | 0.558 | 0.658
2 | HCC-827 | 0.878 | 1.08 | 1.09 | 1.15 | 1.07 | 0.453 | 0.462 | 0.503 | 0.545 | 0.437 | 0.765 | 0.775 | 0.821 | 0.799 | 0.759 | 0.346 | 0.612 | 0.595 | 1.02 | 0.629
3 | ChaGo-K-1 | 0.753 | 0.518 | 0.973 | – | 1.15 | 0.942 | 0.955 | 0.917 | 0.785 | 0.877 | 0.537 | 0.566 | 0.544 | 0.538 | 0.659 | 0.479 | 0.629 | 0.635 | 0.706 | 0.556
4 | NCI-H2228 | 0.422 | 0.453 | 0.376 | 0.358 | 0.294 | 0.836 | 0.878 | 0.881 | 0.749 | 0.6 | 0.825 | 0.827 | 0.563 | 0.514 | 0.464 | 0.144 | 0.23 | 0.0915 | 0.182 | 0.103
5 | NCI-H2170 | 0.355 | 0.312 | 0.316 | – | 0.332 | 0.422 | 0.434 | 0.39 | 0.382 | 0.388 | 0.672 | 0.695 | 0.679 | 0.791 | 0.752 | 0.722 | 0.799 | 0.707 | 0.749 | 0.424
6 | EMC-BAC-2 | 0.576 | 0.505 | 0.465 | 0.528 | 0.5 | 0.494 | 0.503 | 0.518 | 0.511 | 0.491 | 0.377 | 0.364 | 0.339 | 0.418 | 0.371 | 1.16 | 1.27 | 1.17 | 1.16 | 0.994
7 | NCI-H23 | 0.554 | 0.492 | 0.564 | 0.495 | 0.441 | 0.581 | 0.538 | 0.549 | 0.618 | 0.455 | 0.735 | 0.55 | 0.625 | 0.769 | 0.547 | 0.182 | 0.204 | 0.207 | 0.228 | 0.207
8 | RERF-LC-KJ | 0.494 | 0.577 | 0.551 | 0.548 | 0.622 | 1.17 | 1.15 | 1.09 | 1.03 | 1.02 | 0.632 | 0.585 | 0.529 | 0.656 | 0.573 | 1.16 | 1.34 | 1.17 | 1.28 | 1.19
9 | NCI-H358 | 0.276 | 0.351 | 0.275 | 0.347 | 0.243 | 0.135 | 0.113 | 0.145 | 0.119 | 0.0943 | 0.791 | 0.822 | 0.849 | 0.815 | 0.752 | 0.292 | 0.465 | 0.397 | 0.247 | 0.214
10 | LC-2-ad | 0.567 | 0.552 | 0.647 | 0.928 | 0.66 | 0.523 | 0.451 | 0.522 | 0.473 | 0.463 | 0.874 | 0.851 | 0.905 | 0.827 | 0.758 | 1.22 | 1.05 | 0.967 | 0.98 | 0.845
11 | HCC-15 | 0.817 | 0.68 | 0.711 | 0.716 | 0.622 | 0.709 | 0.747 | 0.65 | 0.609 | 0.583 | 0.748 | 0.699 | 0.675 | 0.626 | 0.527 | 0.543 | 0.456 | 0.349 | 0.407 | 0.301
12 | NCI-H2405 | 0.552 | 0.393 | 0.42 | 0.383 | 0.376 | 0.51 | 0.518 | 0.504 | 0.466 | 0.391 | 0.617 | 0.676 | 0.572 | 0.51 | 0.533 | 0.791 | 0.723 | 0.622 | 0.464 | 0.52
13 | LXF-289 | 0.834 | 0.937 | 0.75 | 0.677 | 0.737 | 0.63 | 0.592 | 0.567 | 0.639 | 0.582 | 0.806 | 0.807 | 0.707 | 0.641 | 0.762 | 0.679 | 0.728 | 0.645 | 0.656 | 0.622
